Where two headings read alike, the source gives them in different places.
Legend:
reproductive system = details: based on ToxCast database and literature search; cited from earlier work
HepG2 cell line = details: cited from earlier work
[1] = tested on: testicular cell co-culture (C18-4, TM4, TM3); assay: BrdU incorporation (DNA synthesis) and cell cycle HCA; format: cell-based, mouse
Description: BrdU incorporation, cell fixation, BrdU, and DNA staining followed the previously published protocol (Liang, et al., 2017b). the determination of DNA damage responses and cytoskeleton analysis was conducted after cell fixation. The cells were then permeabilized by a 0.1% Triton X-100 in PBS, and then incubated with a mouse-anti phosphor-histone H2AX (Ser139) (γ-H2AX) overnight at 4° C. […] Finally, prior to acquiring the images, the cells were stained with Alexa Fluor 488 Phallodin for 30 minutes to stain the F-actin (Liang, et al., 2017)
Multi-Channel images were analyzed using HCS Studio™2.0 TargetActivation BioApplication. Multiple parameters of nuclei were characterized in HCA, including nuclei number, nuclear area, shape, and total DNA intensity. Nuclear shape measurements included P2A, a ratio of the nuclear perimeter squared to 4it*nucleus area (perimeter^2/4π*enuclear area) to evaluate nuclear smoothness, and LWR, a ratio of the nuclear length to width, to measure nuclear roundness. For a fairly round and smooth object, the values for P2A and LWR are around 1.0. Total intensity was defined as total pixel intensity within a cell in the respective channel. The total intensities of BrdU, γ-H2AX, and F-actin of the individual cells were also quantified. With forty-nine 20× images acquired from each well, at least 1,000 cells were analyzed per well, and single-cell based data were extracted for further analysis. The experiments were performed with at least four biological replicates and repeated twice.
Data were presented as mean±standard deviation (SD).

Sertoli cells (TM4) = assay: cells; format: cell-based, mouse; details: Mus musculus, read-out: IC50
[2] = tested on: human breast cancer cells; details: cited from earlier work
[3] = tested on: pregnancies and sexual development; details: rats, doses of ˜80 and ˜280 mg/kg; cited from earlier work
[4] = NR dye uptake assay, co-cultures treated with BPA and analogs (Example 2); details: mouse
Description: (§1) The testicular cell co-culture model was established as reported in Example 1 Briefly, mouse spermatogonial cell line C18-4 was established via germ cells isolated from the testes of 6 day old Balb/c mice. […] Mouse Leydig (TM3) and Sertoli (TM4) cell lines were purchased from ATCC, and these cells were isolated from prepubertal mouse gonads. C18-4 cells were maintained in DMEM composed of 5% FBS, and 100 U/ml streptomycin and penicillin in a 33° C., 5% CO2 humidified environment in a sub-confluent condition, and were passaged every 3-4 days TM3 and TM4 cells were cultured in DME/F12 composed of 1.25% FBS, 2.5% horse serum, and 100 U/ml streptomycin and penicillin at 37° C., 5% CO2 in a sub-confluent condition, and were passaged every 2-3 days. When the cells reached 70-80% confluence, a total of 1.5×10^4 cells per well were inoculated into a 96-well plate. […] The co-cultures were maintained in DMEM composed of 2.5% Nu-serum, and 100 U/ml streptomycin and penicillin in a 33° C., 5% CO2 humidified environment.
(§2) Cell viability was determined through the Neutral Red uptake assay, which is based on the ability of viable cells to incorporate NR dye into their lysosomes, while the dye is not retained if the cell dies (Repetto et al., 2008). […] The vehicle controls were set as the co-cultures treated with the vehicle (0.05% DMSO) After the treatments, the culture medium was replaced by fresh medium containing NR (50 μg/ml). After a 3 h incubation period, the co-cultures were washed with phosphate buffered saline (PBS), and the NR dye was eluted with 100 μl of a 0.5% acetic acid/50% ethanol solution. The plate was then gently shaken, and absorbance values were measured at 540 nm with a Synergy HT microplate reader (BioTek, VT). Cell viability was presented as a percentage of the mean of vehicle controls after subtracting background readings.
(§3) The data obtained from the HCS Studio·8 2.0 TargetActivation BioApplication, CellProfiler and CellProfiler Analyst were exported and further analyzed using the JMP statistical analysis package (SAS Institute, NC). To remove cell clumps, nuclei with areas larger than […] were excluded. […] For intra-plate normalization, data were normalized to the overall scaling factors, which was the mean of medians of the vehicle controls in each plate. The single cell-based data were averaged for the well-based condition. BrdU-positive cells were set by the total intensity of BrdU in the control at over 25,000 pixels. γ-H2AX positive cells were set by the total intensity of γ-H2AX in the control at over 120,000 pixels. The median lethal concentrations (LC50) were calculated using a nonlinear regression curve fit on GraphPad Prism 5 (San Diego, Calif.). To examine the correlation between the cytoskeleton and DNA damage responses in multinucleated cells, the Spearman correlation analysis was conducted between the total intensity of F-actin and γ-H2AX for 24, 48, and 72 h using cell-based data. Data were presented as mean±standard deviation (SD). Statistical significance was determined using one-way ANOVA followed by Tukey-Kramer all pairs comparison. The p-value less than 0.05 denoted a significant difference compared to the vehicle control (*).

[5] = tested on: testicular cell co-culture (C18-4, TM4, TM3); assay: as above
Description: as §1, §2, §3

| Compound | In vivo Reproductive Toxicity (reproductive system) | dose not able to induce γ-H2AX (HepG2 cell line) [µM] | doses with significant decrease in BrdU-positive cells ([1]; 24 and 48 h) [µM] | IC50 (Sertoli cells (TM4); 24 h) [µM] | IC50 (Sertoli cells (TM4); 48 h) [µM] | dose able to induce γ-H2AX [2] [nM] | effect on pregnancies and sexual development [3] | CC50 at 72 h [4] [µM] | doses significantly decreasing cell viability ([5]; 24 h) [µM] | HCA-based cell cycle analysis, in words [1] | dose inducing BrdU-positive cells ([1]; 72 h) [µM] | doses with significant decrease in BrdU-positive cells ([1]; 72 h) [µM] | doses significantly decreasing cell viability ([5]; 24, 48, and 72 h) [µM] | toxicity ranking among BPA and analogs ([5]; co-culture model, followed by TBBPA, BPA, and BPS) | doses with significant decrease in BrdU-positive cells ([1]; 24 h) [µM] | doses with significant decrease in BrdU-positive cells ([1]; 48 and 72 h) [µM] |
| --- | --- | --- | --- | --- | --- | --- | --- | --- | --- | --- | --- | --- | --- | --- | --- | --- |
| CC(C)(c1ccc(O)cc1)c1ccc(O)cc1 [BPA, 4,4′-(propane-2,2-diyl) diphenol] | + | > 100 | 100 | 89 | 79 | 10 | did not alter these reproductive endpoints | 150 | ≥ 200 |  |  |  |  |  |  |  |
| Oc1ccc(C(c2ccc(O)cc2)(C(F)(F)F)C(F)(F)F)cc1 [BPAF, 4,4′-(Hexafluoroisopropylidene)diphenol] |  |  |  | 55.4 | 22.3 |  | impaired pregnancies and sexual development | 8.5 |  | significantly induced G2/M phase arrest | 10 | 15 | ≥ 5 | highest toxicity |  |  |
| O=S(=O)(c1ccc(O)cc1)c1ccc(O)cc1 [BPS, 4,4′-Sulfonyldiphenol] |  |  |  | 211 | 74.3 |  |  |  | ≥ 400 |  |  |  |  |  | 100 |  |
| CC(C)(c1cc(Br)c(O)c(Br)c1)c1cc(Br)c(O)c(Br)c1 [TBBPA, 2,2′,6,6′-Tetrabromo-4,4′-isopropylidenediphenol] |  |  |  | 60 | 38 |  |  | 16.8 |  |  |  |  | ≥ 25 |  |  | 15 |
